Test results published in patent US9334264B2, “NAMPT inhibitors” (AbbVie Inc., priority 2012, dated 2016).

How the values were obtained:
[1] = target: NAMPT (human, recombinant, C-terminally His-tagged) (Homo sapiens, UniProt P43490); assay: Time-Resolved Fluorescence Resonance Energy Transfer (TR-FRET) Binding Assay of NAMPT; settings: absence of substrates; 6.8 nM NAMPT, 200 nM probe, equilibrated 3 hours
Description: Determination of the utility of compounds having Formula (I) as binders to and inhibitors of NAMPT was performed using Time-Resolved Fluorescence Resonance Energy Transfer (TR-FRET) binding assays.
Time-Resolved Fluorescence Resonance Energy Transfer (TR-FRET) Binding Assay of NAMPT
Test compounds were serially diluted (typically 11 half log dilutions) in neat DMSO to 50× final concentrations prior to dilution with assay buffer (50 mM HEPES (NaOH), pH 7.5, 100 mM NaCl, 10 mM MgCl2, 1 mM DTT, 1% Glycerol) to 3× and 6% DMSO. Six μL were transferred to 384-well low-volume plates (Owens Corning #3673). To this, 12 μL of a 1.5× solution containing enzyme, probe and antibody were added. Final concentrations in the 18 μL reactions were 1× assay buffer, 2% DMSO, 6.8 nM NAMPT (human, recombinant, C-terminally His-tagged), 200 nM probe (a potent nicotinamide-competitive inhibitor conjugated to Oregon Green 488) and 1 nM Tb-anti-His antibody (Invitrogen #PV5895). Reactions were equilibrated at room temperature for 3 hours prior to reading on an Envision multi-label plate reader (Perkin Elmer; Ex=337 nm, Em=520 and 495 nm). Time-resolved FRET ratios (Em520/Em495) were normalized to controls, plotted as a function of compound concentration and fit with the four-parameter logistic equation to determine IC50s.

NAMPT = NAMPT (Homo sapiens, UniProt P43490); assay: Time-Resolved Fluorescence Resonance Energy Transfer (TR-FRET) Binding Assay of NAMPT with PRPP; settings: 200 μM PRPP and 2.5 mM ATP; 2 nM NAMPT, 2 nM probe, equilibrated 16 hours
Description: Time-Resolved Fluorescence Resonance Energy Transfer (TR-FRET) Binding Assay of NAMPT with PRPP
Compound handling and data processing were identical to the assay in the absence of substrates (above). Final concentrations were 1× assay buffer, 2% DMSO, 2 nM NAMPT, 2 nM probe, 1 nM Tb-anti-His antibody (Invitrogen #PV5895), 200 μM PRPP and 2.5 mM ATP. Reactions were equilibrated for 16 hours prior to measurement to allow for potential enzymatic modification of test compounds.

NAMPT (human, recombinant, C-terminally His-tagged), sequence (P43490 whole entry): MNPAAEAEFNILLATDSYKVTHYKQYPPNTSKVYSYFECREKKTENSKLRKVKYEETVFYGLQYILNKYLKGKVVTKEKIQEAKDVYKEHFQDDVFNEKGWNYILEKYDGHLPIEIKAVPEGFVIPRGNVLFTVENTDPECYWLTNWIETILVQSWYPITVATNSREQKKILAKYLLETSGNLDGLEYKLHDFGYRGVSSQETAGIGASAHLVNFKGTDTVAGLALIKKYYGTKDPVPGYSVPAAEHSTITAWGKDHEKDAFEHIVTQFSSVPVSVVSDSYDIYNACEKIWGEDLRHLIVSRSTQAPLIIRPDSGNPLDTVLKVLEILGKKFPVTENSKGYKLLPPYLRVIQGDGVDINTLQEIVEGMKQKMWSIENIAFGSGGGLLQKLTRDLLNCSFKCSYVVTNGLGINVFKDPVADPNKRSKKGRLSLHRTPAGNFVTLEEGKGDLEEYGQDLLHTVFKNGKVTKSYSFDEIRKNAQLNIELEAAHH
NAMPT, sequence (P43490 whole entry): as above

Row | Compound | IC50 [1] | IC50 (NAMPT)
1 | CN1CCN(CC(=O)N(Cc2ccc(F)cc2)c2ncc(C(=O)NCCCn3ccnc3)s2)CC1 [Example 30, 2-{(4-fluorobenzyl)[(4-methylpiperazin-1-yl)acetyl]amino}-N-[3-(1H-imidazol-1-yl)propyl]-1,3-thiazole-5-carboxamide] | > 10000 nM | 2.29 nM
2 | O=C(NCCCn1ccnc1)c1cnc(N(CCCN2CCOCC2)Cc2ccc(F)cc2)s1 [Example 7, 2-{(4-fluorobenzyl)[3-(morpholin-4-yl)propyl]amino}-N-[3-(1H-imidazol-1-yl)propyl]-1,3-thiazole-5-carboxamide] | 1610 nM | 486 nM
3 | CCOC(=O)C(C)CNC(=O)N(Cc1ccc(C#N)cc1)c1ncc(C(=O)NCCCn2ccnc2)s1 (centres unmarked) [Example 165, ethyl 3-{[(4-cyanobenzyl)(5-{[3-(1H-imidazol-1-yl)propyl]carbamoyl}-1,3-thiazol-2-yl)carbamoyl]amino}-2-methylpropanoate] | 340 nM | 99.1 nM
4 | CC(C)CCN(C(=O)CCc1ccccc1)c1ncc(C(=O)NCCCn2ccnc2)s1 [Example 137, N-[3-(1H-imidazol-1-yl)propyl]-2-[(3-methylbutyl)(3-phenylpropanoyl)amino]-1,3-thiazole-5-carboxamide] | 40.2 nM | 0.236 nM
5 | COCCC(=O)N(CCCNC(C)=O)c1ncc(C(=O)NCCCn2ccnc2)s1 [Example 201, 2-{[3-(acetylamino)propyl](3-methoxypropanoyl)amino}-N-[3-(1H-imidazol-1-yl)propyl]-1,3-thiazole-5-carboxamide] | > 10000 nM | 0.457 nM
6 | N#Cc1ccc(CCN(C(=O)CC2CCOC2)c2ncc(C(=O)NCCCn3ccnc3)s2)cc1 (centres unmarked) [Example 52, 2-{[2-(4-cyanophenyl)ethyl](tetrahydrofuran-3-ylacetyl)amino}-N-[3-(1H-imidazol-1-yl)propyl]-1,3-thiazole-5-carboxamide] | 1010 nM | 0.881 nM
7 | C=CCN(CC=C)CCN(C(=O)CCOC)c1ncc(C(=O)NCCCn2ccnc2)s1 [Example 189, 2-[{2-[di(prop-2-en-1-yl)amino]ethyl}(3-methoxypropanoyl)amino]-N-[3-(1H-imidazol-1-yl)propyl]-1,3-thiazole-5-carboxamide] | 4700 nM | 0.586 nM
8 | O=C(NCCCn1ccnc1)c1cnc(N(CCN2CCCC2)Cc2ccc(F)cc2)s1 [Example 9, 2-{(4-fluorobenzyl)[2-(pyrrolidin-1-yl)ethyl]amino}-N-[3-(1H-imidazol-1-yl)propyl]-1,3-thiazole-5-carboxamide] |  | 641 nM
9 | CC(C)CCN(C(=O)C1CC1)c1ncc(C(=O)NCCCn2ccnc2)s1 [Example 152, 2-[(cyclopropylcarbonyl)(3-methylbutyl)amino]-N-[3-(1H-imidazol-1-yl)propyl]-1,3-thiazole-5-carboxamide] | 768 nM | 0.232 nM
10 | N#Cc1ccc(CN(C(=O)NCCCC(=O)O)c2ncc(C(=O)NCCCn3ccnc3)s2)cc1 [Example 172, 4-{[(4-cyanobenzyl)(5-{[3-(1H-imidazol-1-yl)propyl]carbamoyl}-1,3-thiazol-2-yl)carbamoyl]amino}butanoic acid] | > 10000 nM | 153 nM
11 | COCCC(=O)N(CCCN1CCCC1)c1ncc(C(=O)NCCCn2ccnc2)s1 [Example 192, N-[3-(1H-imidazol-1-yl)propyl]-2-{(3-methoxypropanoyl)[3-(pyrrolidin-1-yl)propyl]amino}-1,3-thiazole-5-carboxamide] | > 10000 nM | 0.262 nM
12 | Cc1cc(C(=O)N(CCC(C)C)c2ncc(C(=O)NCCCn3ccnc3)s2)no1 [Example 135, N-(5-{[3-(1H-imidazol-1-yl)propyl]carbamoyl}-1,3-thiazol-2-yl)-5-methyl-N-(3-methylbutyl)-1,2-oxazole-3-carboxamide] | 93.7 nM | 0.169 nM
13 | CC(=O)NCC(C)CNC(=O)N(Cc1ccc(C#N)cc1)c1ncc(C(=O)NCCCn2ccnc2)s1 (centres unmarked) [Example 141, 2-[{[3-(acetylamino)-2-methylpropyl]carbamoyl}(4-cyanobenzyl)amino]-N-[3-(1H-imidazol-1-yl)propyl]-1,3-thiazole-5-carboxamide] | > 10000 nM | 23.1 nM
14 | O=C(NCCCn1ccnc1)c1cnc(N(Cc2ccc(F)cc2)Cc2ccc(-c3cccnc3)cc2)s1 [Example 1, 2-{(4-fluorobenzyl)[4-(pyridin-3-yl)benzyl]amino}-N-[3-(1H-imidazol-1-yl)propyl]-1,3-thiazole-5-carboxamide] | 63.8 nM | 
15 | O=C(NCCCn1ccnc1)c1cnc(N(Cc2ccc(F)cc2)Cc2c(Cl)ccc3c2OCO3)s1 [Example 14, 2-{[(5-chloro-1,3-benzodioxol-4-yl)methyl](4-fluorobenzyl)amino}-N-[3-(1H-imidazol-1-yl)propyl]-1,3-thiazole-5-carboxamide] |  | 338 nM
16 | O=C(NCCCn1ccnc1)c1cnc(N(Cc2ccc(F)cc2)Cc2cc(Cl)ccc2Cl)s1 [Example 17, 2-[(2,5-dichlorobenzyl)(4-fluorobenzyl)amino]-N-[3-(1H-imidazol-1-yl)propyl]-1,3-thiazole-5-carboxamide] |  | 1220 nM

Continued, values first:

Row | IC50 [1] | IC50 (NAMPT) | Compound
17 | 533 nM | 0.7 nM | CCN(CCOC)C(=O)N(Cc1ccc(F)cc1)c1ncc(C(=O)NCCCn2ccnc2)s1 [Example 71, 2-{[ethyl(2-methoxyethyl)carbamoyl](4-fluorobenzyl)amino}-N-[3-(1H-imidazol-1-yl)propyl]-1,3-thiazole-5-carboxamide]
18 | 996 nM | 505 nM | CCN(CC)C(=O)CN(Cc1ccc(F)cc1)c1ncc(C(=O)NCCCn2ccnc2)s1 [Example 21, 2-{[2-(diethylamino)-2-oxoethyl](4-fluorobenzyl)amino}-N-[3-(1H-imidazol-1-yl)propyl]-1,3-thiazole-5-carboxamide]
19 | 2530 nM | 320 nM | Cc1nccn1CCCNC(=O)c1cnc(N(Cc2ccc(F)cc2)C(=O)CC(C)C)s1 [Example 53, 2-[(4-fluorobenzyl)(3-methylbutanoyl)amino]-N-[3-(2-methyl-1H-imidazol-1-yl)propyl]-1,3-thiazole-5-carboxamide]
20 |  | 71.5 nM | CN(Cc1ccc(F)cc1)c1ncc(C(=O)NCCCn2ccnc2)s1 [Example 3, 2-[(4-fluorobenzyl)(methyl)amino]-N-[3-(1H-imidazol-1-yl)propyl]-1,3-thiazole-5-carboxamide]
21 |  | 12500 nM | CN(C)C(=O)CN(Cc1ccc(F)cc1)c1ncc(C(=O)NCCCn2ccnc2)s1 [Example 20, 2-{[2-(dimethylamino)-2-oxoethyl](4-fluorobenzyl)amino}-N-[3-(1H-imidazol-1-yl)propyl]-1,3-thiazole-5-carboxamide]
22 |  | 1.21 nM | CN(C)CC(=O)N(Cc1ccc(F)cc1)c1ncc(C(=O)NCCCn2ccnc2)s1 [Example 26, 2-[(N,N-dimethylglycyl)(4-fluorobenzyl)amino]-N-[3-(1H-imidazol-1-yl)propyl]-1,3-thiazole-5-carboxamide]
23 |  | 12500 nM | CC(C)NC(=O)CN(Cc1ccc(F)cc1)c1ncc(C(=O)NCCCn2ccnc2)s1 [Example 19, 2-{(4-fluorobenzyl)[2-oxo-2-(propan-2-ylamino)ethyl]amino}-N-[3-(1H-imidazol-1-yl)propyl]-1,3-thiazole-5-carboxamide]
